The subject of one experiment is primary CLL cells. The experiment can be described thus: Soluble BCMA ELISA in supernatants of CLL cells. It counts as cell-based, human. Particulars: 100 nM, 24-48 h. The method, then: Primary CLL samples were stained for BCMA expression by flow cytometry and compared to isotype controls. […] As provided in FIG. 2A, CLL cells were cultured and basal levels of BCMA were assessed by flow cytometry and compared to isotype controls. (n=25). For FIG. 2B, CLL cells were treated for 24 or 48h with 0nM or 100 nM γ-secretase inhibitor and BCMA was assessed by flow cytometry. Values are represented as fold increase compared to medium control. (n=12-28). FIG. 2C provides basal levels of BCMA compared to isotype control among CLL patients with mutated or unmutated IgVH. (n=4-10). FIG. 2D illustrates the fold increase of BCMA after 24-48 h treatment with 100nM γ-secretase inhibitor compared to medium control among CLL patients with mutated or unmutated IgVH. (n=5-13). FIG. 2E provides the results of an assessment of BCMA mRNA relative to GAPDH control by qPCR after primary CLL samples were treated without or with 100 nM γ-secretase inhibitor for 24 h. (n=9). […] (n=4-12) The P value was calculated by Wilcoxon test (FIGS. 2A-2B), Mann Whitney test (FIGS. 2B, 2C, 2D) or paired t test (FIGS. 2E, F). […]
sBCMA ELISA. […] After 24 or 48 h supernatants were harvested and stored at −20° C. soluble BCMA (sBCMA) in supernatants were measured by ELISA using antibody pairs for BCMA.
A general note: In an ELISA, binding on a coated surface is turned into a signal by an enzyme label.

The next experiment concerns Jurkat cells. The experiment can be described thus: BCMA membrane level by flow cytometry after γ-secretase inhibition, Jurkat. It counts as cell-based. Particulars: 100nM, 24-48 h. The protocol: To evaluate whether other malignancies besides multiple myeloma (MM) can potentially be targeted by BCMA directed immunotherapy, B cell malignancy cell lines were assessed for BCMA expression by flow cytometry. […] Per FIG. 1A, B cell malignancy cell lines were cultured and basal levels of BCMA were assessed by flow cytometry and compared to isotype controls. (n=3-8). Dotted line indicates no increase compared to isotype control. In accordance with FIG. 1B, cell lines were treated for 24-48h with 100nM γ-secretase inhibitor or with medium control and BCMA was assessed by flow cytometry. Values are represented as fold increase compared to 0 nM γ-secretase inhibitor. (n=3-12) Dotted line indicates no increase compared to 0 nM γ-secretase inhibitor. FIG. 1C represents the results of an asssessment of soluble BCMA by ELISA in supernatants of B cell malignancy cell lines after treatment with 0 nM or 100 nM γ-secretase inhibitor for 24-48 h. (n=2). […] The P value was calculated by paired t test of Wilcoxon test (FIG. 1A-1B) or simple linear regression (FIG. 1E). […]
Since BCMA is known to be cleaved off by γ-secretase, it was evaluated whether inhibition of this enzyme would lead to enhanced BCMA levels on these B cell lines. […]
Flow cytometry. […] After antibody staining, samples were washed using PBA and acquired on BD FACS Canto or LSR Fortessa flow cytometer and analysed with FlowJo v10. […]
In general terms: In flow cytometry, cells or beads pass a laser one at a time.

Turning to `C[C@H](NC(=O)[C@@H](O)c1cc(F)cc(F)c1)C(=O)N[C@@H]1C(=O)N(C)c2ccccc2-c2ccccc21` [Ly411575], the “sBCMA levels in supernatants of CLL cells” value in the experiment on primary CLL cells is given as “marked decreases”. For the same compound, the “BCMA level after γ-secretase inhibition” value in the experiment on Jurkat cells was “no upregulation of BCMA”.
